In patent US12622898B2, “Methods and compositions for improving bone marrow hematopoietic functions” (SUN YAT-SEN UNIVERSITY, priority 2019, dated 2026):
Entries after “also recorded” stand apart in the source; their conditions may differ.

Experiments:
[1] = test system: HSPCs (LT-HSC, ST-HSC, MPP and CD150HSC) in the bone marrow; assay: ABC294640 treatment of C57BL/6J mice during homeostasis: HSPC numbers and cell cycle; format: in vivo, mouse; conditions: for HSC pool / HSC quiescence (cell cycle analysis of CD150 HSCs): vs vehicle
Description: (§1) B6N.129S6-Sphk1tm1Rlp/J (Sphk1Δ/Δ) and B6N.129S6-Sphk2tm1Rlp/J (Sphk2Δ/Δ) mice were obtained from the Jackson Laboratory. To achieve tissue-specific deletion of Sphk2, the Sphk2^flox/flox mice were crossed with Vav-Cre transgenic mice. Sphk2^flox/flox mice was constructed by Cyagen Biosciences Inc. Briefly, linearized targeting vector was electroporated into embryonic stem (ES) cells and positive clones were identified by Southern blotting and injected into C57BL/6 blastocysts followed by chimera production to obtain germline transmission. The Frt-flanked Neo cassette was subsequently removed by mating with Flpe mice. 2-month-old mice or more than 20-month old for aging we used as indicated. 5 FU (Sigma-Aldrich) was injected once or once a week for survival curve as indicated in the tail vein at 150 μg/g body weight. Sphk2 inhibitor ABC294640 (Target Molecule Corp T6750) and PDK inhibitor Sodium dichloroacetate (DCA) (Selleck Chemicals S8615) were intraperitoneal injected at 25 mg/kg. […] Animals were randomly included in the experiments according to genotyping results as a mix of male and female. All animal experiments were performed according to protocols approved by the institutional animal care and use committee.
(§2) For phenotype analysis and hematopoietic purification, hematopoietic cells were harvested from bone marrow (femur and tibia). For cell surface phenotyping, a lineage cocktail (Lin, phycoerythrin (PE)-Cy5) was used, including anti-CD3 (145-2C11), anti-CD4 (RM4-5), anti-CD8 (53-6.7), anti-Mac-1 (M1/70), anti-Gr1 (RB6-8C5), anti-B220 (RA3-6B2), anti-IgM (11/41) and anti-TER119 (TER-119) (100 ng antibody cocktail per million bone marrow cells, Biolegend). Monoclonal antibodies to SCA1 (D7, Biolegend), c-KIT (2B8, Biolegend), FLK2 (A2F10, Biolegend), CD34 (RAM34, eBioscience), CD48 (HM48-1, Biolegend), CD41 (MWReg30, eBioscience), CD150 (TC15-12F12.2, BioLegend), CD16/32 (93, Biolegend), IL-7R (A7R34, Biolegend) (all used as 50 ng per million bone marrow cells) were also used where indicated.
(§3) For cell cycle, DNA damage, the cells were fixed, permeabilized and stained by anti-Ki67 (16A8, Biolegend).
(§4) Cell sorting and analysis were performed using an Attune NxT analyzer (Thermo Fisher Scientific) or InFlux Cell Sorter (BD Biosciences). Data analysis was performed using FlowJo software.

[2] = test system: HSPCs (LT-HSC, ST-HSC, MPP, CD150HSC); assay: ABC294640 treatment after 5 FU chemotherapeutic stress: HSPC numbers and ROS; format: in vivo, mouse; conditions: vs vehicle
Description: as §1, §2
(§5) The cells were further incubated with 0.1 ug/uL DAPI (1306, Thermo Scientific) for 30 min at room temperature. For apoptosis and ROS analysis, the cells were stained by AnnexinV or DCFDA (D6883, Sigma-Aldrich).
as §4

[3] = test system: functional HSCs (engrafted donor cells in PB); assay: Competitive repopulation (serial transplantation) of bone marrow cells from mice after 5 FU and ABC294640 treatment; format: in vivo, mouse; conditions: for increase of reconstitution (engrafted donor cells): at 16 weeks, vs vehicle treated bone marrow cells
Description: For lineage analysis of peripheral blood, monoclonal antibodies to CD45.1 (A20, eBioscience), CD45.2 (104, Biolegend), CD3, B220, Mac-1 and Gr1 were used. 2.0×10^5 CD45.2 bone marrow cells and 2.0×10^5 CD45.1 rescue bone marrow cells were transplanted into lethally irradiated CD45.1 recipients. Adult recipient mice (CD45.1) were irradiated with an Orthovoltage X-ray source delivering approximately in two equal doses of 4.5 Gy at least 3 hours apart. For secondary or tertiary transplantation, bone marrow cells from each recipient were injected into one or two irradiated new recipient mouse (1×10^6 per recipient, depending on the number of recipients) during each round of transplantation. Every 4 weeks after transplantation, peripheral blood was collected from the submandibular vein. Hematopoietic repopulation was measured from donor-derived blood cells (CD45.2) or human-derived blood cells (human CD45).

[4] = Survival of C57BL/6J mice after serial 5 FU challenges with ABC294640 treatment; format: in vivo, mouse; conditions: serial 5 FU every 7 days, ABC294640 every other day; vs control
Description: B6N.129S6-Sphk1tm1Rlp/J (Sphk1Δ/Δ) and B6N.129S6-Sphk2tm1Rlp/J (Sphk2Δ/Δ) mice were obtained from the Jackson Laboratory. To achieve tissue-specific deletion of Sphk2, the Sphk2^flox/flox mice were crossed with Vav-Cre transgenic mice. Sphk2^flox/flox mice was constructed by Cyagen Biosciences Inc. Briefly, linearized targeting vector was electroporated into embryonic stem (ES) cells and positive clones were identified by Southern blotting and injected into C57BL/6 blastocysts followed by chimera production to obtain germline transmission. The Frt-flanked Neo cassette was subsequently removed by mating with Flpe mice. 2-month-old mice or more than 20-month old for aging we used as indicated. 5 FU (Sigma-Aldrich) was injected once or once a week for survival curve as indicated in the tail vein at 150 μg/g body weight. Sphk2 inhibitor ABC294640 (Target Molecule Corp T6750) and PDK inhibitor Sodium dichloroacetate (DCA) (Selleck Chemicals S8615) were intraperitoneal injected at 25 mg/kg. […]
Data are expressed as means±s.d. For all experiments except determination of survival, data were analyzed by Student's t test, and differences were considered statistically significant if P<0.05. The survival of the two groups were analyzed using a log-rank test, and differences were considered statistically significant if P<0.05. […]

aged HSPCs = assay: ABC294640 treatment of aged mice to attenuate HSC aging; format: in vivo, mouse
Description: as §1, §2
For lineage analysis of peripheral blood, monoclonal antibodies to CD45.1 (A20, eBioscience), CD45.2 (104, Biolegend), CD3, B220, Mac-1 and Gr1 were used.
as §3, §5
Bone marrow cells were diluted to the indicated concentration in PBS and were seeded into methylcellulose medium M3434 (StemCell Technologies) for CFU-GM, CFU-GEMM, and BFU-E colony formation assays according to the manufacturer's

[5] = test system: donor derived HSPCs, white blood cells and platelets; assay: ABC294640 treatment of recipients after bone marrow transplantation: hematopoietic reconstitution; format: in vivo, mouse; conditions: vs vehicle
Description: as §1
2.0×10^5 CD45.2 bone marrow cells and 2.0×10^5 CD45.1 rescue bone marrow cells were transplanted into lethally irradiated CD45.1 recipients. Adult recipient mice (CD45.1) were irradiated with an Orthovoltage X-ray source delivering approximately in two equal doses of 4.5 Gy at least 3 hours apart. For secondary or tertiary transplantation, bone marrow cells from each recipient were injected into one or two irradiated new recipient mouse (1×10^6 per recipient, depending on the number of recipients) during each round of transplantation.
1×10^6 bone marrow cells were transplanted into lethally irradiated recipients, and the recipients were subjected to ABC294640 treatment or vehicle control (FIG. 67).

Pdk3 expression in HSPCs = assay: Pdk3 mRNA levels and immunoblotting in HSCs treated with inhibitors; format: cell-based, mouse
Description: The same number of cells from each population to be analyzed were sorted into PBS with 2% FBS. The cells then were washed with PBS and Lysised by RIPA. Equal amounts of protein extracts were fractionated by 12.5% SDS-PAGE and transferred to a PVDF membrane (IPVH00010, Merck Millipore). After blocked with 5% non-fat milk in Tris-buffered saline with Tween-20 (TBST, pH 7.6) for 1 h at room temperature, the membranes were incubated with primary antibodies anti-phospho-PDHE1-A type I (Ser293) (rabbit, 1:1000, ABS204, Merck Millipore), anti-Sphk2 (rabbit, 1:1000, 17096, Proteintech), anti-PDK3 (rabbit, 1:1000, 4970s, Proteintech), or anti-βactin (rabbit, 1:1000, 2118, Cell Signaling Technology), or with primary antibodies anti-PDK3 (rabbit, 1:1000, 12215, Proteintech), anti-β-actin (rabbit, 1:1000, 4970s, Cell Signaling Technology), overnight at 4° C. and then incubated with secondary antibodies (rabbit, 1:10,000, W401B, Promega) for 1 h at room temperature, which was detected by exposure to x-ray film, or by digital imaging with a charge-coupled device camera system (Odyssey Fc). The images shown are representative of images from at least three experiments.

[6] = test system: human cord blood HSCs (CB-HSCs, CD34+CD38-CD45RA-CD49f+); assay: Ex vivo culture of human cord blood cells with ABC294640; format: cell-based; conditions: 2-week culture, ABC294640 1 μM; vs vehicle
Description: For phenotype analysis of human cord blood HSCs (CB-HSCs, CD34^+CD38-CD45RA-CD49f^+), cell surface phenotyping, anti-hCD34 (581), anti-hCD38 (HIT2), anti-hCD45RA (HI100) and anti-hCD49f (GOH3) (100 ng antibody cocktail per million cord blood cells, Biolegend) were used. Human cord blood cells (2×10^5) were cultured in 96-round-well plate with Stem Span media (9650, Stem Cell Technologies) supplemented with SCF (10 ng per ml), TPO (20 ng per ml) for two weeks. The culture media was supplemented with vehicle or ABC294640 (1 μM, Target Molecule Corp […]). After culture for two weeks, the culture product was transplanted into irradiated (2Gy) 6-12 weeks old NSG mice via the tail. No mice were excluded unless they died during the 16-week-observations. All animal experiments were performed according to protocols approved by the institutional animal care and use committee.

[7] = test system: human HSCs (reconstitution in NSG mice); assay: Transplantation of ABC294640 treated human cord blood HSCs into NSG mice; format: in vivo, mouse
Description: Or, in example 14, for lineage analysis of peripheral blood, monoclonal antibodies to anti-hCD45 (HI-30, eBioscience), anti-mCD45 (30-F11, Biolegend), anti-hCD33 (human myeloid cells) (WM53, eBioscience), anti-hCD19 (human B cells) (HIB19, eBioscience), anti-hCD3 (human T cells) (UCHT1, eBioscience) were used. Every 4 weeks after transplantation, peripheral blood was collected from the submandibular vein. Hematopoietic repopulation was measured from donor-derived blood cells (CD45.2) or human-derived blood cells (human CD45). Human cord blood cells (2×10^5) were cultured in 96-round-well plate with Stem Span media (9650, Stem Cell Technologies) supplemented with SCF (10 ng per ml), TPO (20 ng per ml) for two weeks. The culture media was supplemented with vehicle or ABC294640 (1 μM, Target Molecule Corp […]). After culture for two weeks, the culture product was transplanted into irradiated (2Gy) 6-12 weeks old NSG mice via the tail. No mice were excluded unless they died during the 16-week-observations. All animal experiments were performed according to protocols approved by the institutional animal care and use committee.

[8] = test system: white blood cells and platelets; assay: Recovery of blood cells after 5-fluorouracil or radiation-induced injury; format: in vivo, mouse
[9] = test system: HSPCs from Sphk2 deficient mice; assay: DCA treatment of Sphk2 deficient and control mice; format: in vivo, mouse; conditions: Sphk2 deficient mice treated for 14 days, vs vehicle treated littermates
Description: as §1
as §2, with “indicated. […]” for “indicated.”

[10] = ABC294640 25 mg/kg intraperitoneal vs vehicle, bone marrow
[11] = donor-derived lineage cells at 16 weeks after transplantation
[12] = 18-month old mice, treatment for 10 weeks, vs vehicle
[13] = one month after transplantation
[14] = 16 weeks after transplantation in NSG mice
[15] = after stimulation of the chemotherapeutic drug 5-fluorouracil
[16] = after the stimulation of radiation

## O=C(NCc1ccncc1)C12CC3CC(C1)CC(c1ccc(Cl)cc1)(C3)C2 [ABC294640, 3-(4-chloro-phenyl)-adamantane-1-carboxylic acid (pyridin-4-ylmethyl)-amide]
[1]; [10]
  increase of CD150 HSC number: 1.7 fold
  increase of LT-HSC number: 2.1 fold
[1]
  HSC pool: expanded HSPC pool
  HSC quiescence (cell cycle analysis of CD150 HSCs): increased quiescence
[1]; listed as ABC294460
  HSC pool: expands HSC pool
  HSC quiescence (cell cycle analysis of CD150 HSCs): promotes HSC quiescence
[2]; day 14 after 5 FU treatment
  ROS level in CD150 HSCs: markedly reduced
[2]; day 14 post 5 FU
  increase of CD150 HSC number: 2.2 fold
  increase of LT-HSC number: 2.2 fold
  increase of ST-HSC number: 1.6 fold
[3]; [11]
  lymphopoiesis in recipients: markedly promoted lymphopoiesis
  myeloid skewing in recipients: suppressed myeloid skewing
[3]; primary transplantation
  increase of reconstitution (engrafted donor cells): 1.7 fold
[3]; secondary transplantation
  increase of reconstitution (engrafted donor cells): 1.5 fold
[3]; tertiary transplantation
  increase of reconstitution (engrafted donor cells): 1.9 fold
[4]
  survival: significantly prolonged; also recorded: notably increased survival
Aged HSPCs; [12]
  CD150 HSC quiescence: preserved
  HSPC pool: significantly expanded
  increase of CD41- HSC population: 2.2 fold
  increase of CD150low HSC population: 3.6 fold
  reduction of DNA damage in CD150 HSPCs: 43.7%
  reduction of ROS level in CD150 HSPCs: 63%
Aged HSPCs; aged mice, vs vehicle
  lymphopoiesis in peripheral blood: markedly increased lymphopoiesis
  myeloid skewing in peripheral blood: suppressed myeloid skewing
Aged HSPCs; aged mice, vs vehicle treated controls
  colony-forming progenitor frequency in bone marrow cells: significantly higher
[5]; 28 days after transplantation
  increase of platelets in PB: 2.6 fold
  increase of white blood cells in PB: 1.9 fold
[5]; [13]
  increase of donor derived CD150 HSC: 2.2 fold
  increase of donor derived LT-HSC: 2.2 fold
  increase of donor derived ST-HSC: 1.6 fold
Pdk3 expression in HSPCs
  Pdk3 expression in HSPCs: could upregulate Pdk3 expression
[6]
  increase of human HSC numbers: 1.4 fold
[7]; [14]
  lymphopoiesis (both B and T cells in recipients): improved lymphopoiesis
  multilineage potential: with multilineage potential
  myeloid skewing: reduction in myeloid skewing
[7]; 16 weeks post transplantation in NSG mice, vs vehicle cultured cells
  increase of reconstitution (human-derived blood cells): 1.76 fold
[8]; [15]
  recovery of platelets: significantly accelerated
  recovery of white blood cells: significantly accelerated
[8]; [16]
  recovery of platelets: significantly accelerated
  recovery of white blood cells: significantly accelerated

## O=C([O-])C(Cl)Cl.[Na+] [DCA, Sodium dichloroacetate]
[9]; 25 mg/kg intraperitoneal
  HSPC numbers: reduced HSPC numbers
[9]
  HSC quiescence: compromised HSC quiescence
  ROS levels in HSPCs: increased ROS levels
